Measurements reported in patent publication US20240279298A1 (BEIJING TUO JIE BIOPHARMACEUTICAL CO. LTD., priority 2021, published 2024).
Converted amounts (≈) assume the structure as drawn. Each block holds one molecule with its values, some of them ahead of it. Where a SMILES comes first, the peptide text is derived from it. [ ]: non-standard residue; d: D form. Aib = CC(C)(N)C(=O)O

Columns and labels:
[1] = Maximum solubility in phosphate buffer pH 7.4; assay type: physicochemical; conditions: phosphate buffer pH 7.4, room temperature
[2] = Chemical stability in phosphate buffer (UPLC purity); assay type: physicochemical; conditions: phosphate buffer pH 7.4, 1 mg/mL
[3] = tested on: normal rats (blood glucose); assay: Efficacy in normoglycemic rat model; assay type: in vivo, SD rats; conditions: normal rats, 2 nmol/kg subcutaneous single dose
[4] = tested on: insulin-induced hypoglycemia rat model; assay: Efficacy in insulin-induced hypoglycemic rat model; assay type: in vivo, SD rats; conditions: insulin 0.65 IU/kg at T0; 12 nmol/kg subcutaneous at 45 min
[5] = Pharmacokinetics in rats after subcutaneous injection; assay type: in vivo, SD rats; conditions: plasma
Experimental: (1) Animals were grouped according to Table 12, and were given free access to water and food before administration.
• Sampling time: 0 min pre-dose, and 2 min, 4 min, 7 min, 10 min, 20 min, 40 min, 1 h and 2 h post-dose. Blood was collected from rats by jugular catheterization.
• 1) 0.2 mL of whole blood was collected at each time point into a centrifuge tube containing EDTA-K2; • 2) The blood samples were centrifuged at 4000 g at 4° C. for 5 min, and separated to give the plasma; • 3) The plasma samples were cryopreserved at −80° C.
The mixture was vortexed for 5 min and centrifuged at a low temperature for 10 min. 100 μL of the supernatant was taken and added to 100 μL of 0.1% formic acid aqueous solution. The mixture was mixed well, and loaded on the instrument for analysis; • Liquid chromatography and mass spectrometry analysis: LC-30A liquid chromatography system (Shimadzu, Japan) and API 5500 liquid chromatography-triple quadrupole mass spectrometer (Analyst Software data processing system, AB Sciex, USA) were used. The chromatographic column was nanomicro Unisil C18aq (4.6 mm×150 mm, 5 μm) chromatographic column; the column temperature was 40° C.; the mobile phase A was 0.1% formic acid aqueous solution, and the mobile phase B was 0.1% formic acid in acetonitrile; the flow rate was 0.5 mL/min; the injection volume was 20 μL; the gradient is shown in Table 13 below. The mass spectrum was obtained using an electrospray ionization (ESI) source, a positive ion analysis mode and a multi reaction monitoring (MRM) scanning mode.
The plasma concentration of the test compounds was measured by HPLC-MS/MS. The plasma concentration-time curve was plotted, and the pharmacokinetic parameters were calculated by PKSolver.

in vitro [6] = conditions: human
in vitro [7] = conditions: human; remark: listed apart in the source
[8] = tested on: rat erythrocyte suspension; assay: Hemolysis assay; conditions: for Hemolysis rate: 37° C., 1 hour
human liver microsomes = assay: Stability in human liver microsome incubation system
human kidney microsomes = assay: Stability in human kidney microsome incubation system
[9] = molecular target: T1, human glucagon receptor (GCGR) (Homo sapiens, UniProt P47871); assay: Agonist activity assay for GCGR (cAMP HTRF); assay type: cell-based; conditions: normalized by the activity of the native glucagon
T1 construct: expressed in transfected cells
T1 sequence (P47871 26-477): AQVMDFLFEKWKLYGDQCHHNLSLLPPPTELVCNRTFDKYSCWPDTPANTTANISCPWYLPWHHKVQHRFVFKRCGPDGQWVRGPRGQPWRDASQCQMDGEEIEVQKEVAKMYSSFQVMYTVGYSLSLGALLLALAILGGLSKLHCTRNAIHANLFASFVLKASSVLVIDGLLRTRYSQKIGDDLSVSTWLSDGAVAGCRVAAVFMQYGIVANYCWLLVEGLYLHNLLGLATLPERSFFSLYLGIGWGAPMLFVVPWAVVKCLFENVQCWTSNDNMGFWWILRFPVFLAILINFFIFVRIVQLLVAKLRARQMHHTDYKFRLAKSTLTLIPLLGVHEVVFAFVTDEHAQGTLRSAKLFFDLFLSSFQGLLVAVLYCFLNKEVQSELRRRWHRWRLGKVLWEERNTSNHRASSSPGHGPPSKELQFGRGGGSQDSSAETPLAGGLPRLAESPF
Experimental: The activation of GCGR by related compounds will stimulate the formation of cyclic adenosine monophosphate (cAMP) in cells. Thus, the receptor activity can be monitored by cAMP production in proper cells expressing the receptor. […] The cells were passaged at least once for subsequent tests. Before testing, the cells were trypsinized, centrifuged, washed once, and resuspended in serum-free DMEM/F12 medium. The cell density was adjusted, and the cells were plated in a 96-well plate at a density of 2,500 cells/5 μL/well. […] The mixture was mixed well by moderate vibration, and incubated for 1 hour at room temperature away from light.

solubility [1]: > 16400 µg/mL
Structure (SMILES): CC(C)C[C@H](NC(=O)[C@H](Cc1ccc(O)cc1)NC(=O)[C@H](CCCCN)NC(=O)[C@H](CO)NC(=O)[C@H](Cc1ccc(O)cc1)NC(=O)[C@H](CC(=O)O)NC(=O)[C@H](CO)NC(=O)[C@@H](NC(=O)[C@H](Cc1ccccc1)NC(=O)[C@@H](NC(=O)CNC(=O)[C@H](CCC(N)=O)NC(=O)[C@H](CO)NC(=O)[C@@H](N)Cc1c[nH]cn1)[C@@H](C)O)[C@@H](C)O)C(=O)N[C@@H](CCC(=O)O)C(=O)N[C@@H](CO)C(=O)NC(C)(C)C(=O)N[C@@H](CCCNC(=N)N)C(=O)N[C@@H](C)C(=O)N[C@@H](CCC(=O)O)C(=O)N[C@@H](CC(=O)O)C(=O)N[C@@H](Cc1ccccc1)C(=O)N[C@H](C(=O)N[C@@H](CCCNC(=N)N)C(=O)N[C@@H](Cc1c[nH]c2ccccc12)C(=O)N[C@@H](CC(C)C)C(=O)N[C@@H](CCC(=O)O)C(=O)N[C@@H](CO)C(=O)N[C@H](C(=O)O)[C@@H](C)O)C(C)C [Compound 38] (H-HSQGTFTSDYSKYLES[Aib]RAEDFVRWLEST-OH)

solubility at 5 min [1]: > 3750 µg/mL | Purity Day 7 ([2]; 4° C.): 98.66% | Purity Day 14 ([2]; 4° C.): 98.84% | Purity Day 21 ([2]; 4° C.): 99.85% | Purity Day 28 ([2]; 4° C.): 99.68% | Purity Day 7 ([2]; 25° C.): 98.07% | Purity Day 14 ([2]; 25° C.): 96.73% | Purity Day 21 ([2]; 25° C.): 96.68% | Purity Day 28 ([2]; 25° C.): 96.81% | Purity Day 0 ([2]; day 0 (normalization)): 100.00% | AUClast/D ([5]; male SD rats, single SC injection, Dasiglucagon 5 mg/kg, 40 5.06 mg/kg): 260 h·ng/mL per mg/kg | Tmax ([5]; male, SD, rat, sc): 10 min | half-life ([5]; male, SD, rat, sc, male SD rats, single SC injection, Dasiglucagon 5 mg/kg, 40 5.06 mg/kg): 30.6 min | bioavailability ([5]; male, SD, rat, sc, read-out: Bioavailability (F %)): 84.6% | remaining at 0.25 h, 1 μM (in vitro [6]; human liver microsomes): 91.8% | remaining at 0.5 h, 1 μM (in vitro [6]; human liver microsomes): 91.6% | remaining at 1 h, 1 μM (in vitro [6]; human liver microsomes): 81.1% | remaining at 2 h, 1 μM (in vitro [6]; human liver microsomes): 59.2% | half-life at 1 μM (in vitro [6]; liver microsomes): 162 min | remaining at 0.25 h, 1 μM (in vitro [7]; human kidney microsomes): 63.5% | remaining at 0.5 h, 1 μM (in vitro [7]; human kidney microsomes): 52.9% | remaining at 1 h, 1 μM (in vitro [7]; human kidney microsomes): 36.6% | remaining at 2 h, 1 μM (in vitro [7]; human kidney microsomes): 17.7% | half-life at 1 μM (in vitro [7]; kidney microsomes): 51.3 min | Percentage residues 0 min (human liver microsomes; With NADPH): 100.0% | Percentage residues 0 min (human liver microsomes; Without NADPH): 100.0% | Percentage residues 15 min (human liver microsomes; Without NADPH): 91.65% | Percentage residues 30 min (human liver microsomes; Without NADPH): 88.78% | Percentage residues 60 min (human liver microsomes; Without NADPH): 71.74% | Percentage residues 120 min (human liver microsomes; Without NADPH): 53.48% | T½ (human liver microsomes; Without NADPH, 1 μM): 125.37 min | Percentage residues 0 min (human kidney microsomes; With NADPH): 100.0% | Percentage residues 0 min (human kidney microsomes; Without NADPH): 100.0% | Percentage residues 15 min (human kidney microsomes; Without NADPH): 73.24% | Percentage residues 30 min (human kidney microsomes; Without NADPH): 55.17% | Percentage residues 60 min (human kidney microsomes; Without NADPH): 33.12% | Percentage residues 120 min (human kidney microsomes; Without NADPH): 19.74% | T½ (human kidney microsomes; Without NADPH, 1 μM): 51.98 min
Structure (SMILES): CC(C)C[C@H](NC(=O)[C@H](Cc1c[nH]c2ccccc12)NC(=O)[C@H](CCCCN)NC(=O)[C@@H](NC(=O)[C@H](Cc1ccccc1)NC(=O)[C@H](CCC(=O)O)NC(=O)[C@H](CCC(=O)O)NC(=O)[C@H](C)NC(=O)[C@H](CCCNC(=N)N)NC(=O)[C@H](C)NC(=O)C(C)(C)NC(=O)[C@H](CC(=O)O)NC(=O)[C@H](CC(C)C)NC(=O)[C@H](Cc1ccc(O)cc1)NC(=O)[C@H](CCCCN)NC(=O)[C@H](CO)NC(=O)[C@H](Cc1ccc(O)cc1)NC(=O)[C@H](CC(=O)O)NC(=O)[C@H](CO)NC(=O)[C@@H](NC(=O)[C@H](Cc1ccccc1)NC(=O)[C@@H](NC(=O)CNC(=O)[C@H](CCC(N)=O)NC(=O)[C@H](CO)NC(=O)[C@@H](N)Cc1c[nH]cn1)[C@@H](C)O)[C@@H](C)O)C(C)C)C(=O)N[C@@H](CCC(=O)O)C(=O)N[C@@H](CO)C(=O)N[C@H](C(=O)O)[C@@H](C)O [Dasiglucagon, reference compound]
Blood glucose 15 min [3]: 9.32 mmol/L | Blood glucose 30 min [3]: 7.73 mmol/L | Blood glucose 45 min [3]: 6.87 mmol/L | Blood glucose 60 min [3]: 6.08 mmol/L | Blood glucose 60 min [4]: 7.00 mmol/L | Blood glucose 75 min [4]: 9.52 mmol/L | Blood glucose 90 min [4]: 8.43 mmol/L | Blood glucose 105 min [4]: 7.47 mmol/L | Hemolysis rate ([8]; 1 μg/mL): −4.69% | Hemolysis rate ([8]; 3 μg/mL): −4.77% | Hemolysis rate ([8]; 10 μg/mL): −4.05% | Hemolysis rate ([8]; 30 μg/mL): −5.23% | Hemolysis rate ([8]; 100 μg/mL): −5.52% | Hemolysis rate ([8]; 300 μg/mL): −4.63% | Hemolysis risk (in words) ([8]; concentrations ranging from 1 to 300 μg/mL): no significant risk of the hemolysis adverse effect was found

Relative activity [9]: 371% | solubility at 5 min [1]: 1620 µg/mL (≈ 472 µM)
Structure (SMILES): CC(C)C[C@H](NC(=O)[C@H](Cc1ccc(O)cc1)NC(=O)[C@H](CCCCN)NC(=O)[C@H](CO)NC(=O)[C@H](Cc1ccc(O)cc1)NC(=O)[C@H](CC(=O)O)NC(=O)[C@H](CO)NC(=O)[C@@H](NC(=O)[C@H](Cc1ccccc1)NC(=O)[C@@H](NC(=O)CNC(=O)[C@H](Cc1c[nH]cn1)NC(=O)[C@H](CO)NC(=O)[C@@H](N)Cc1c[nH]cn1)[C@@H](C)O)[C@@H](C)O)C(=O)N[C@@H](CC(=O)O)C(=O)N[C@@H](CC(C)C)C(=O)NC(C)(C)C(=O)N[C@@H](CCCNC(=N)N)C(=O)N[C@@H](C)C(=O)N[C@@H](CCC(N)=O)C(=O)N[C@@H](CCC(=O)O)C(=O)N[C@@H](Cc1ccccc1)C(=O)N[C@H](C(=O)N[C@@H](CCC(N)=O)C(=O)N[C@@H](Cc1c[nH]c2ccccc12)C(=O)N[C@@H](CC(C)C)C(=O)N[C@@H](CCC(=O)O)C(=O)N[C@@H](CO)C(=O)N[C@H](C(=O)O)[C@@H](C)O)C(C)C [Compound 43] (H-HSHGTFTSDYSKYLDL[Aib]RAQEFVQWLEST-OH)

Relative activity [9]: 253% | solubility at 5 min [1]: > 2070 µg/mL
Structure (SMILES): CC(C)C[C@H](NC(=O)[C@H](Cc1ccc(O)cc1)NC(=O)[C@H](CCCCN)NC(=O)[C@H](CO)NC(=O)[C@H](Cc1ccc(O)cc1)NC(=O)[C@H](CC(=O)O)NC(=O)[C@H](CO)NC(=O)[C@@H](NC(=O)[C@H](Cc1ccccc1)NC(=O)[C@@H](NC(=O)CNC(=O)[C@H](Cc1c[nH]cn1)NC(=O)[C@H](CO)NC(=O)[C@@H](N)Cc1c[nH]cn1)[C@@H](C)O)[C@@H](C)O)C(=O)N[C@@H](CC(=O)O)C(=O)N[C@@H](CC(C)C)C(=O)NC(C)(C)C(=O)N[C@@H](CCCNC(=N)N)C(=O)N[C@@H](C)C(=O)N[C@@H](CCC(N)=O)C(=O)N[C@@H](CCC(=O)O)C(=O)N[C@@H](Cc1ccccc1)C(=O)N[C@H](C(=O)N[C@@H](CCC(=O)O)C(=O)N[C@@H](Cc1c[nH]c2ccccc12)C(=O)N[C@@H](CC(C)C)C(=O)N[C@@H](CCC(=O)O)C(=O)N[C@@H](CO)C(=O)N[C@H](C(=O)O)[C@@H](C)O)C(C)C [Compound 47] (H-HSHGTFTSDYSKYLDL[Aib]RAQEFVEWLEST-OH)
